Data from a melting point compilation (Tetko et al.; mined from patent text by program, amines drawn as free bases though some values may be those of a salt).

Row | Structure (SMILES) | melting point
1 | CS(=O)(=O)c1ccc(C(CC2CCCC2)c2nc(Cl)c(C(=O)C3CC3)[nH]2)cc1 (stereo not drawn) | 95 to 97 °C
2 | O=CN(O)C(CC1CCS(=O)(=O)CC1)CS(=O)(=O)c1ccc(Oc2ccc(OC(F)(F)F)cc2)cc1 (stereo not drawn) | 143 to 144 °C
3 | CC1(C)CCC(C)(C)c2cc(-c3cc(-c4ccc(C(=O)O)cc4)ccc3O)ccc21 | 240 to 241 °C
4 | CCN1C(=O)Cc2cc(C(=O)c3cccs3)ccc21 | 158 to 160 °C
5 | CCCNC(=S)Nc1ccnc(CCCCCN2C(=O)c3ccccc3C2=O)n1 | 146 to 149 °C
6 | CN(C)C(=O)c1ccc(C(N)=O)cc1S(N)(=O)=O | 202 to 205 °C
7 | CCCSc1nc(-c2ccc(Cl)cc2)c(CCC(=O)O)o1 | 128 to 129 °C
8 | CC(C)(C)C(=O)C(Cc1cccnc1)Oc1ccc(Cl)cc1 (stereo not drawn) | 77 to 79 °C
9 | CN1C(=O)CN=C(c2ccccc2F)c2cc(NC(=O)NCCOC(C)(C)C)ccc21 | 177 °C
10 | C/C(=C\c1ccc(C(=O)O)cc1)c1ccc2c(c1)C(C)(C)CC(=O)C2(C)C | 249 to 250 °C
11 | CC(=O)Nc1nc(C)c(-c2ccc(S(C)(=O)=O)cc2)s1 | 251 to 253 °C
12 | CCCCCCCCCCCCCCOc1ccc(CC(=O)O)cc1Cl | 68 to 69 °C
13 | Cc1ccc2c(c1)c1c(n2C(=O)c2ccccc2)CCCC1C(=O)O (stereo not drawn) | 149 to 153 °C
14 | O=C(Cc1ccc(Cl)c(Cl)c1)N1CCc2occc2C1CO (stereo not drawn) | 155 to 156 °C
15 | O=C(O)c1sc(C(c2ccc(Cl)cc2)c2c(Cl)cc(-n3ncc(=O)[nH]c3=O)cc2Cl)nc1-c1ccccc1 (stereo not drawn) | 206 °C
16 | CC1CCc2cc(N3C[C@H](CO)OC3=O)ccc2N1C(=O)OCc1ccccc1 (stereo partly drawn) | 99 to 102 °C
17 | CCc1cn(C2CCC(CNC(=O)Cc3c(Cl)cccc3Cl)O2)c(=O)[nH]c1=O (stereo not drawn) | 237 to 238 °C
18 | CSc1nc2c(cc1Cl)N(C(=O)Nc1cccnc1)CC2 | 266 to 267 °C
19 | NC(Cc1c(Cl)cccc1Cl)=NO | 172 to 173 °C
20 | CC(C)C(/C=C/C(=O)O)=C(c1ccc(F)cc1)c1ccc(F)cc1 | 225 to 230 °C
21 | COCCc1nnc(NC(=O)C(c2ccccc2)c2ccccc2)o1 | 114 to 115 °C
22 | O=C(CNS(=O)(=O)c1ccc2[nH]c(=O)c(=O)[nH]c2c1)OCc1ccccc1 | 270 to 280 °C
23 | O=c1[nH]c2ncc(-c3ccc(O)cc3)nc2n1CC1CCCC1 | 296 to 297 °C
24 | CN1C(=O)C(c2cccc(-c3cccnc3F)c2)(c2cc(C=NO)n(CCCF)c2)N=C1N (stereo not drawn) | 119 to 123 °C
25 | CCOC(=O)CSCc1cccc(-c2c(CC(=O)Nc3ccc(F)cc3C(F)(F)F)c(=O)oc3cc(Cl)c(C)cc23)c1 | 106 to 108 °C

Row | Structure (SMILES) | melting point
26 | COC(=O)CC(Nc1ccccc1OC)c1ccc2ccccc2n1 (stereo not drawn) | 119 to 121 °C
27 | Cc1ccnc2c1nc(-c1cccnc1N)n2-c1ccc(CC(=O)Nc2cccc(F)c2)cc1 | 241 to 243 °C
28 | COC(=O)c1ccc2c(-c3ccccc3)cc(=O)oc2c1 | 133 to 135 °C
29 | CC1NC(=O)NN=C1c1ccc(N)c(Br)c1 (stereo not drawn) | 222 to 224 °C
30 | Cc1cn(C(C)C(=O)N(C)C)nc1-c1ccc(Cl)s1 (stereo not drawn) | 112 to 114 °C
31 | O=C(O)CCCCCCCCCCCCCCCCCCC(=O)n1nnc2ccccc21 | 112 °C
32 | Cc1ccc(C(=O)NC(NC(=S)Nc2cc(F)ccc2F)C(F)(F)F)cc1 (stereo not drawn) | 183 to 185 °C
33 | O=C(c1ccccc1)N1CCc2[nH]c3cccc(CCCOc4ccccc4)c3c2CC1 | 121 to 124 °C
34 | O=C(Nc1cccnn1)N1CCN(c2ccnc(-c3cccc(F)c3F)n2)CC1 | 235 to 236 °C
35 | CCCSc1ccc(Oc2ccc(Cl)c(Cl)c2)nc1C#N | 67 to 69 °C
36 | COc1nc(Cl)cnc1N | 102 to 103 °C
37 | CCOC(=O)c1ncn2c1CN(C)C(=O)c1cc(C(F)(F)F)ccc1-2 | 179 to 180 °C
38 | CCC(CC)C(=O)C(C1CCc2ccccc2N1)N1CCN(c2cccc3[nH]ccc23)CC1 (stereo not drawn) | 145 to 148 °C
39 | Cc1c(C#N)c(N)n(-c2c(Br)cc(C(F)(F)F)cc2Br)c1C | 158 to 161 °C
40 | CCOC(=O)C(C#N)=C1CCN(c2ccc(OC)cc2)CC1 | 87 °C
41 | O=C(CO)NCCCCCCCCCCNC(=O)CO | 120 to 122 °C
42 | Cc1nc(N(C)C)sc1C(=O)c1ccc(N)c(N)c1 | 174 to 178 °C
43 | CCOc1ccccc1C(=O)Nc1ccc(C(=O)N2CCC(F)(F)/C(=C\C(=O)N(C)C)c3ccccc32)cc1 | 195 to 198 °C
44 | CC(=O)Nc1cc2c(cc1[N+](=O)[O-])OC(C)O2 (stereo not drawn) | 112 to 113 °C
45 | COCn1ncc2cc(C(=O)NN)ccc21 | 141 to 142 °C
46 | CCCN(Cc1ccc(-c2ccccc2C(=N)NO)cc1)c1nc2ccccc2cc1C(=O)OCC | 61 to 67 °C
47 | COc1cc(-c2nc(NC(C)C)c3c(C)c(C#N)sc3n2)cc(OC)c1OC | 191 to 193 °C
48 | COc1ccc(-c2cc(C(C)(C)C)c(O)c(C(C)(C)C)c2)cc1 | 109 to 110 °C
49 | CC(C)Cn1cc(C(N)=O)c(N)n1 | 154 to 158 °C
50 | CC(C)(C)OCOc1cc(NC(=O)NC(=O)c2ccc(C(N)=S)cc2)ccc1OCC(=O)OC(C)(C)C | 198 to 199 °C

Row | Structure (SMILES) | melting point
51 | C(=C\c1nc(COc2ccc(CCn3cncn3)cc2)co1)/c1ccccc1 | 136 to 137 °C
52 | CC(=O)c1ccc(NCCCN2CCC(c3noc4cc(F)ccc34)CC2)c(O)c1 | 150 to 152 °C
53 | COc1ccc(C(=O)Nc2ccncc2)c2c1[nH]c1ccccc12 | > 250 °C
54 | O=C1NN(c2nc3ccc(Cl)cc3s2)C(c2ccccc2)C1c1ccccc1 (stereo not drawn) | 170 to 172 °C
55 | N#Cc1ccc(N2CCC(CC(=O)O)CC2)c2ccccc12 | 195 to 196 °C
56 | COC1(c2nc(Br)c(Sc3ccc(/C(C)=N/O)cc3)s2)CCOCC1 | 130 °C
57 | O=C(O)CSc1nc(-c2ccccc2)ns1 | 97 °C
58 | CNC(=NCCSCc1cc(CN(C)C)ccn1)NC#N | 114 to 116 °C
59 | c1ccc(-c2nc3cc(COc4ccc(CCCn5ccnc5)cc4)ccc3o2)cc1 | 137 to 138 °C
60 | COCCOC(=O)c1cnn2c(-c3cccc(C(F)(F)F)c3)ccnc12 | 111 to 112 °C
61 | CCCOc1ccccc1C(=O)Nc1cccnc1C(N)=O | 116 to 118 °C
62 | CC(CCCCc1ccc(F)cc1)NCc1c(CO)ccc(O)c1CO (stereo not drawn) | 72 to 77 °C
63 | O=c1cc(C(F)(F)F)ncn1-c1c(Cl)cc(C(F)(F)F)cc1[N+](=O)[O-] | 149 to 150 °C
64 | CNc1nc(Cl)c(Cl)c(N2CCN(C(=O)OC(C)(C)C)CC2)n1 | 129 to 131 °C
65 | CCCCC(=O)Nc1ccc(C(F)(F)F)c(-n2nc(CC)n(Cc3ccc(-c4ccccc4S(=O)(=O)NC(C)(C)C)cc3F)c2=O)c1 | 243 to 245 °C
66 | NC(=O)N(O)CC(=O)Nc1cccc(OCc2ccccc2)c1 | 177 to 178 °C
67 | O=C(Nc1ccccc1S(=O)(=O)c1ccccc1)N[C@@H](Cc1ccc(OC(=O)c2c(Cl)cncc2Cl)cc1)C(=O)O | 186 °C
68 | CC(C)CCCC(C)C1CCC2C3CC=C4CC(NC(=O)CCN(C)C(=O)OC5c6ccccc6-c6ccccc65)CCC4(C)C3CCC12C (stereo not drawn) | 124 to 128 °C
69 | O=C(O)CC1(c2ccccc2)Oc2ccc(Cl)cc2O1 (stereo not drawn) | 117 to 119 °C
70 | Cc1ccc(Oc2nc3nc(C)cc(C)n3n2)c(C)c1 | 133 to 136 °C
71 | CC(=O)Nc1ccc(N(C)C(=O)OCc2ccccc2)c(O)c1 | 174 °C
72 | O=C(O)c1ccc(-c2c[nH]c(=O)cn2)cc1 | > 300 °C
73 | CC(C)c1cc([N+](=O)[O-])c(O)c(C(C)C)c1NC(=O)CN1CCN(CCSc2nc3ccccc3o2)CC1 | 139 to 141 °C
74 | COc1ccc(CN(CC(=O)NO)S(=O)(=O)c2ccc(OC)cc2)cc1 | 134 to 136 °C
75 | C[C@@H]1OCCN(c2cc(N3CCOCC3)nc(-n3c(CO)nc4ccccc43)n2)[C@@H]1C (relative stereo) | 125 to 128 °C

Row | Structure (SMILES) | melting point
76 | Nc1ncccc1-c1nc2ccc(-c3cccnc3)nc2n1-c1ccc(CNC(=O)c2ccccc2)cc1 | 253 to 256 °C
77 | CCOC(=O)C=Cc1ccc(O)c(C(F)(F)F)c1C(F)(F)F | 138 to 140 °C
78 | CCCC(=O)Oc1cc2c(s1)CCN(C(C(=O)C1CC1)c1ccccc1F)C2 (stereo not drawn) | 84 to 85 °C
79 | O=C(Nc1ccc2[nH]c(CNCC3CCOCC3)cc2c1)c1ccc(OCC2CC2)cc1 | 160 °C
80 | COc1ccc(C(=O)Nc2cc(OC)c(Cl)cc2OC)cc1F | 197 to 199 °C
81 | CC(C)C1Cc2ccccc2P1c1ccccc1P1c2ccccc2CC1C(C)C (single isomer, unassigned; (+)) | 70 to 71 °C
82 | CC(C)C(=O)N(O)C(C)c1cc(C(C)(C)C)c(O)c(C(C)(C)C)c1 (stereo not drawn) | 147 to 148 °C
83 | CCOC(=O)C(=O)Nc1ccc(OC)c(NC(=O)C(=O)OCC)c1 | 140 to 145 °C
84 | CC#CCOc1ccc([S@](=O)[C@@H](CCCCCC)C(=O)O)cc1 | 112 °C
85 | CN1CC=C(c2c[nH]c3ccc(C(=O)O)cc23)CC1 | 249 °C
86 | O=c1[nH][nH]c2c1c(O)nc1cc(Cl)ccc12 | > 350 °C
87 | Cc1ccnc(Nc2nc(-c3ccccc3O)cs2)c1 | 249 to 250 °C
88 | Cc1nc(-c2cccc(Cn3ccc4nc(C(C)C)n(Cc5ccc6ccc(-c7noc(C)n7)cc6c5)c4c3=O)c2)no1 | 108 to 109 °C
89 | CSc1ccc(-c2nn(Cc3cccnc3)c(=S)cc2-c2ccc(Cl)cc2)cc1 | 130 to 131 °C
90 | Cc1ccccc1-c1cc(C#N)c[nH]1 | 151 to 152 °C
91 | Cc1sc(C(=O)O)c2c1-c1c(cnn1CC(F)(F)F)CC2 | 250 to 251 °C
92 | CC1(C)[C@@H]2CC3[C@H](C(=O)O)[C@@]3(C)C[C@@H]21 (stereo partly drawn) | 86 °C
93 | N#C[C@@H]1CCC[C@H]2OC[C@@H](c3ccccc3)N12 | 81 °C
94 | CCCOc1ccc(C(=O)OC)cc1-c1ccc(C#N)c(=O)[nH]1 | 201 to 203 °C
95 | NS(=O)(=O)c1ccccc1-c1ccno1 | 132 to 135 °C
96 | COC(=O)Cc1ccc(OCCNC(=O)C2Cc3ccccc3N2S(=O)(=O)c2ccc(-c3cc(C(F)(F)F)ccc3Cl)cc2)c(Cl)c1 (stereo not drawn) | 68 to 76 °C
97 | O=S1(=O)N[C@@H](c2ccccc2)c2ccccc21 | 139 °C
98 | CC(C)(Cc1ccc(Cl)cc1)C(O)(COc1ccc(Cl)cc1)c1cccnc1 (stereo not drawn) | 46 to 47 °C
